Experimental data as given in patent US11464770B2, “Anticancer pharmaceutical composition” (NATIONAL CANCER CENTER, priority 2016, dated 2022).
Read-outs that look alike come from different tables or passages of the source.

Test system: pancreatic cancer cell lines (e.g. MIA PaCa-2)
Test: Cell based assay, cell viability (CellTiter-Glo), pancreatic cancer cell lines
Conditions: Homo sapiens
Procedure: Commercially available bladder cancer, prostate cancer, lung cancer, breast cancer, blood cancer, pancreatic cancer, colorectal cancer, brain cancer, neuroblastoma, melanoma, liver cancer, cervical carcinoma, ovarian cancer, renal cancer, and papilloma cell lines were each treated with trypsin-EDTA and cultured, followed by being seeded in each well of a 96 well plate. After 24 hours of treatment at constant temperature, the respective cells were treated with the candidate compound so that a final concentration became 0 to 2 μM. The treated cells were additionally cultured for 72 hours, and cell viability was measured by using an ATP detection method (CellTiter-Glo® Luminescent Cell Viability Assay, Promega).

[1] = pancreatic cancer cell line AsPC-1, 72 hours, read-out: IC50, AsPC-1
[2] = pancreatic cancer cell line BxPC-3, 72 hours, read-out: IC50, BxPC-3
[3] = pancreatic cancer cell line CFPAC-1, 72 hours, read-out: IC50, CFPAC-1
[4] = pancreatic cancer cell line Capan-1, 72 hours, read-out: IC50, Capan-1
[5] = pancreatic cancer cell line Capan-2, 72 hours, read-out: IC50, Capan-2
[6] = pancreatic cancer cell line MIA PaCa-2, 72 hours, read-out: IC50, MIA PaCa-2
[7] = pancreatic cancer cell line PANC-1, 72 hours, read-out: IC50, PANC-1

IC50 [1] [nM]	IC50 [2] [nM]	IC50 [3] [nM]	IC50 [4] [nM]	IC50 [5] [nM]	IC50 [6] [nM]	IC50 [7] [nM]	Structure (SMILES)
> 2000	> 2000	> 10000	> 2000	> 2000	> 2000	> 2000	CC(=O)c1c(SCc2ccc([N+](=O)[O-])cc2)[nH]c2c(Br)ccc(Cl)c2c1=O [Compound 32, 3-acetyl-8-bromo-5-chloro-2-((4-nitrobenzyl)thio)quinolin-4(1H)-one]
> 2000	> 2000	> 10000	> 2000	> 2000	> 2000	> 2000	CSc1c(C(C)=O)c(=O)c2c(Cl)ccc(Br)c2n1S(C)(=O)=O [Compound 35, 3-acetyl-8-bromo-5-chloro-1-(methylsulfonyl)-2-(methylthio)quinolin-4(1H)-one]
> 2000	> 2000	> 10000	> 2000	> 2000	> 2000	> 2000	CC(=O)c1c([S+](C)[O-])n(S(=O)(=O)C(F)(F)F)c2c(Br)ccc(Cl)c2c1=O (centres unmarked) [Compound 36, 3-acetyl-8-bromo-5-chloro-2-(methylsulfinyl)-1-((trifluoromethyl)sulfonyl)quinolin-4(1H)-one]
> 2000	> 2000	> 10000	> 2000	> 2000	> 2000	> 2000	CSc1c(C(C)=O)c(=O)c2c(Cl)ccc(Br)c2n1S(=O)(=O)c1ccc(Cl)cc1 [Compound 37, 3-acetyl-8-bromo-5-chloro-1-((4-chlorophenyl)sulfonyl)-2-(methylthio)quinolin-4(1H)-one]
> 2000	> 2000	> 10000	> 2000	> 2000	> 2000	> 2000	CSc1c(C(C)=O)c(=O)c2c(Cl)ccc(Br)c2n1S(=O)(=O)c1ccc([N+](=O)[O-])cc1 [Compound 38, 3-acetyl-8-bromo-5-chloro-2-(methylthio)-1-((4-nitrophenyl)sulfonyl)quinolin-4(1H)-one]
> 2000	> 2000	> 10000	> 2000	> 2000	> 2000	> 2000	CCS(=O)(=O)n1c([S+](C)[O-])c(C(C)=O)c(=O)c2c(Cl)ccc(Br)c21 (centres unmarked) [Compound 39, 3-acetyl-8-bromo-5-chloro-1-(ethylsulfonyl)-2-(methylsulfinyl)quinolin-4(1H)-one]
> 2000	> 2000	> 10000	> 2000	> 2000	> 2000	> 2000	CSc1c(C(C)=O)c(=O)c2c(Cl)ccc(Br)c2n1S(=O)(=O)c1ccc(C(C)(C)C)cc1 [Compound 40, 3-acetyl-8-bromo-1-((4-(tert-butyl)phenyl)sulfonyl)-5-chloro-2-(methylthio)quinolin-4(1H)-one]
> 2000	> 2000	> 10000	> 2000	> 2000	> 2000	> 2000	CC(=O)c1c(S(C)(=O)=O)n(S(=O)(=O)c2ccc(C(C)(C)C)cc2)c2c(Br)ccc(Cl)c2c1=O [Compound 41, 3-acetyl-8-bromo-1-((4-(tert-butyl)phenyl)sulfonyl)-5-chloro-2-(methylsulfonyl)quinolin-4(1H)-one]
> 2000	> 2000	> 10000	> 2000	> 2000	> 2000	> 2000	CC(=O)c1c([S+](C)[O-])n(S(=O)(=O)c2ccc(C(C)(C)C)cc2)c2c(Br)ccc(Cl)c2c1=O (centres unmarked) [Compound 42, 3-acetyl-8-bromo-1-((4-(tert-butyl)phenyl)sulfonyl)-5-chloro-2-(methylsulfinyl)quinolin-4(1H)-one]
> 2000	> 2000	> 10000	> 2000	> 2000	> 2000	> 2000	CC(=O)c1c(SCc2cc(Cl)ccc2Cl)[nH]c2c(Br)ccc(Cl)c2c1=O [Compound 43, 3-acetyl-8-bromo-5-chloro-2-((2,5-dichlorobenzyl)thio)quinolin-4(1H)-one]
> 2000	> 2000	> 10000	> 2000	> 2000	> 2000	> 2000	CC(=O)c1c(SCc2cc(F)cc(F)c2)[nH]c2c(Br)ccc(Cl)c2c1=O [Compound 45, 3-acetyl-8-bromo-5-chloro-2-((3,5-difluorobenzyl)thio)quinolin-4(1H)-one]
